Results from patent publication US20240317744A1, “Bicyclic Ureas As Kinase Inhibitors” (Incyte Corporation, priority 2023, published 2024).

What was measured:
[1] = biological target: catalytic domain (JH1, amino acids 808-1132) of human JAK2 (Homo sapiens, UniProt O60674); test: JAK2 HTRF Enzyme Activity Assay; format: biochemical; conditions: ATP 30 µM, 60 minutes at 25° C.; read-out: V617F ENZ 30 UM
[2] = biological target: T1, pseudo-kinase domain (JH2, amino-acids 536-812) of human Wild Type JAK2 (Homo sapiens, UniProt O60674, F794H/W659A/W777A); test: JAK2 LanthaScreen JH2-WT Binding Assay; conditions: JAK2 JH2-WT 0.145 nM, 50 nM tracer, 1 hour at 25° C.; read-out: JH2 BIND WT
T1 construct: pseudo-kinase domain (JH2, amino-acids 536-812 with 3 surface mutations W659A, W777A, F794H); His (C); purchased BPS Bioscience 79463; host or cells: baculovirus expression system
T1 sequence (O60674 536-812 W659A/W777A/F794H): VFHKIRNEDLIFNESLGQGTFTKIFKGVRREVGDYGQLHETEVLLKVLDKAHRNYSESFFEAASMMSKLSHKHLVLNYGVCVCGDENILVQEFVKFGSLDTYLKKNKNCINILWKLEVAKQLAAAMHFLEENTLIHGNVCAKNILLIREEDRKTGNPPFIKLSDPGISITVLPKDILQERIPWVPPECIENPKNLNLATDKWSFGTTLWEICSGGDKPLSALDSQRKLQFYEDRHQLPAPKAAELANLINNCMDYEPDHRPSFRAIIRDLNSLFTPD
Summary of the method: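 Compounds, serially diluted, were mixed with 0.145 nM JH2 domain, 50 nM tracer and 0.25 nM streptavidin-Tb cryptate, then incubated 1 hour at 25° C before LanthaScreen reading. Wells containing 2 mM ATP defined non-specific binding. Four-parameter dose-response curves gave IC50.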

[3] = biological target: T2, catalytic domain (JH1, amino acids 826-1132) of human JAK2 (Homo sapiens, UniProt O60674); test: JAK2 LanthaScreen JH1 Binding Assay; conditions: JAK2 JH1 1.5 nM, 50 nM tracer, 2 hours at 25° C.; read-out: JH1 BIND
T2 construct: catalytic domain (JH1, amino acids 826-1132) of human JAK2; FLAG (N); biotin (biotinylated); purchased Carna Biosciences 08-445-20N; host or cells: baculovirus expression system
T2 sequence (O60674 826-1132): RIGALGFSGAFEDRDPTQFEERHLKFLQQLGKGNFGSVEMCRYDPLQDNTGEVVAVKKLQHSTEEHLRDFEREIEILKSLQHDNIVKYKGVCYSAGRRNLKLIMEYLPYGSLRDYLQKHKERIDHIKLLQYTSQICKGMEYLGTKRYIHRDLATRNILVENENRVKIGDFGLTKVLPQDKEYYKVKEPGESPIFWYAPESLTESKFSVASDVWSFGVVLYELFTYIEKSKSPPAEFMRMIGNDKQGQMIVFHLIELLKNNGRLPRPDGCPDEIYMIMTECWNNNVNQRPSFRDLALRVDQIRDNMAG
Summary of the method: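 TR-FRET tracer-displacement format: compound IC50 from four-parameter curves after 2 h at 25° C. Reaction held 1.5 nM biotinylated, FLAG-tagged JH1 (aa 826-1132), 50 nM tracer, 0.5 nM Streptavidin-Tb, pH 7.5 Tris buffer; 2 mM ATP set nonspecific background.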

[4] = biological target: T3, pseudo-kinase domain (JH2, amino-acids 536-812) of human V617F mutant JAK2 (Homo sapiens, UniProt O60674, F794H/V617F/W659A/W777A); test: JAK2 LanthaScreen JH2-V617F Binding Assay; conditions: JAK2 JH2-V617F 0.26 nM, 50 nM tracer, 1 hour at 25° C.; read-out: JH2 BIND V617F
T3 construct: pseudo-kinase domain (JH2, amino-acids 536-812 with 3 surface mutations W659A, W777A, F794H); His (C); purchased BPS Bioscience 79498; host or cells: baculovirus expression system
T3 sequence (O60674 536-812 V617F/W659A/W777A/F794H): as the sequence (O60674 536-812 W659A/W777A/F794H) above, with V82F counted along it
Summary of the method: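 TR-FRET tracer displacement: 0.26 nM protein, 50 nM tracer, 0.25 nM SA-Tb, 50 mM Tris pH 7.5, 10 mM MgCl2, 5 mM DTT; 1 h, 25° C. NSB = 2 mM ATP. IC50, 4-parameter curve.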

Chain of catalytic domain (JH1, amino acids 808-1132) of human JAK2 (O60674 808-1132 limits assumed): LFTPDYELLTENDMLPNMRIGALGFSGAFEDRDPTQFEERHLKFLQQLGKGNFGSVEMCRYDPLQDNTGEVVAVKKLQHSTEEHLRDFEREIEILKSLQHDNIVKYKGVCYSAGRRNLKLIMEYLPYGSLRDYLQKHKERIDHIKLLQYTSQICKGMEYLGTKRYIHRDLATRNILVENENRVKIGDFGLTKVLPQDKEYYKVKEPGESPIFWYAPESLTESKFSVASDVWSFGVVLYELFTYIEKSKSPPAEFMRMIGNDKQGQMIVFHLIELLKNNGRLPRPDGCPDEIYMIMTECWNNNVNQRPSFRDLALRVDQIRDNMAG

Row | SMILES | IC50 [1] | IC50 [2] | IC50 [3] | IC50 [4]
1 | COC(=O)N[C@@H]1CC[C@@H](n2c(=O)n(C)c3cnc(Nc4cccc(C(=O)N5CCCCC5)n4)cc32)C1 [Example 86, Methyl ((1R,3R)-3-(3-methyl-2-oxo-6-((6-(piperidine-1-carbonyl)pyridin-2-yl)amino)-2,3-dihydro-1H-imidazo[4,5-c]pyridin-1-yl)cyclopentyl)carbamate] | > 1000 nM | 10 to 100 nM | > 1000 nM | 100 to 500 nM
2 | COC(=O)N[C@@H]1CC[C@@H](n2c(=O)n(C)c3cnc(Nc4cccc(C(=O)NC5CCCCC5)n4)cc32)C1 [Example 87, Methyl ((1R,3R)-3-(6-((6-(cyclohexylcarbamoyl)pyridin-2-yl)amino)-3-methyl-2-oxo-2,3-dihydro-1H-imidazo[4,5-c]pyridin-1-yl)cyclopentyl)carbamate] | > 1000 nM | ≤ 10 nM | > 1000 nM | 10 to 100 nM
3 | [2H]C([2H])([2H])n1c(=O)n([C@@H]2CC[C@@H](NC(=O)OC)C2)c2cc(Nc3ccc4c(n3)c(-c3cnn(C(F)(F)F)c3)cn4CCOC)ncc21 [Example 88, Methyl ((1R,3R)-3-(6-((1-(2-methoxyethyl)-3-(1-(trifluoromethyl)-1H-pyrazol-4-yl)-1H-pyrrolo[3,2-b]pyridin-5-yl)amino)-3-(methyl-d3)-2-oxo-2,3-dihydro-1H-imidazo[4,5-c]pyridin-1-yl)cyclopentyl)carbamate] | > 1000 nM | ≤ 10 nM | > 1000 nM | ≤ 10 nM
4 | [2H]C([2H])([2H])n1c(=O)n([C@@H]2CC[C@@H](NC(=O)OC)C2)c2cc(Nc3cc(-c4cnccc4C(F)(F)F)c4c(n3)n(-c3cnn(C(F)F)c3)c(=O)n4C)ncc21 [Example 89, Methyl ((1R,3R)-3-(6-((3-(1-(difluoromethyl)-1H-pyrazol-4-yl)-1-methyl-2-oxo-7-(4-(trifluoromethyl)pyridin-3-yl)-2,3-dihydro-1H-imidazo[4,5-b]pyridin-5-yl)amino)-3-(methyl-d3)-2-oxo-2,3-dihydro-1H-imidazo[4,5-c]pyridin-1-yl)cyclopentyl)carbamate] | > 1000 nM | ≤ 10 nM | > 1000 nM | ≤ 10 nM
5 | [2H]C([2H])([2H])n1c(=O)n(C2CC3(CC(NC(=O)C4CC4)C3)C2)c2cc(Nc3cc(C(=O)N4CCOCC4)c4cccc(C(F)(F)F)c4n3)ncc21 (centres unmarked) [Example 90, N-(6-(3-(Methyl-d3)-6-((4-(morpholine-4-carbonyl)-8-(trifluoromethyl)quinolin-2-yl)amino)-2-oxo-2,3-dihydro-1H-imidazo[4,5-c]pyridin-1-yl)spiro[3,3]heptan-2-yl)cyclopropanecarboxamide] | > 1000 nM | ≤ 10 nM | 100 to 500 nM | ≤ 10 nM
6 | [2H]C([2H])([2H])n1c(=O)n([C@@H]2CC[C@](C)(NC(=O)C3CC3)C2)c2cc(Nc3cc(C(C)(C)O)cc(-c4ncc(Cl)s4)n3)ncc21 [Example 92, N-((1S,3R)-3-(6-((6-(5-Chlorothiazol-2-yl)-4-(2-hydroxypropan-2-yl)pyridin-2-yl)amino)-3-(methyl-d3)-2-oxo-2,3-dihydro-1H-imidazo[4,5-c]pyridin-1-yl)-1-methylcyclopentyl)cyclopropanecarboxamide] | > 1000 nM | ≤ 10 nM | > 1000 nM | ≤ 10 nM
7 | [2H]C([2H])([2H])n1c(=O)n([C@@H]2CC[C@@H](NC(=O)OC)C2)c2cc(Nc3cc(C(C)(C)O)cc(-c4ncc(Cl)s4)n3)ncc21 [Example 93, Methyl ((1R,3R)-3-(6-((6-(5-chlorothiazol-2-yl)-4-(2-hydroxypropan-2-yl)pyridin-2-yl)amino)-3-(methyl-d3)-2-oxo-2,3-dihydro-1H-imidazo[4,5-c]pyridin-1-yl)cyclopentyl)carbamate] | > 1000 nM | ≤ 10 nM | > 1000 nM | ≤ 10 nM
8 | [2H]C([2H])([2H])n1c(=O)n([C@@H]2CC[C@@H](NC(=O)OC)C2)c2cc(Nc3cc(C(C)(C)O)c4cc(-c5cnn(C)c5)cc(C(F)(F)F)c4n3)ncc21 [Example 94, Methyl ((1R,3R)-3-(6-((4-(2-hydroxypropan-2-yl)-6-(1-methyl-1H-pyrazol-4-yl)-8-(trifluoromethyl)quinolin-2-yl)amino)-3-(methyl-d3)-2-oxo-2,3-dihydro-1H-imidazo[4,5-c]pyridin-1-yl)cyclopentyl)carbamate] | > 1000 nM | ≤ 10 nM | > 1000 nM | ≤ 10 nM
9 | [2H]C([2H])([2H])n1c(=O)n([C@@H]2CC[C@@H](NC(=O)OC)C2)c2cc(Nc3cc(C(C)(C)O)cc(-c4cnc(C(F)(F)F)s4)n3)ncc21 [Example 95, Methyl ((1R,3R)-3-(6-((4-(2-hydroxypropan-2-yl)-6-(2-(trifluoromethyl)thiazol-5-yl)pyridin-2-yl)amino)-3-(methyl-d3)-2-oxo-2,3-dihydro-1H-imidazo[4,5-c]pyridin-1-yl)cyclopentyl)carbamate] | > 1000 nM | ≤ 10 nM | > 1000 nM | ≤ 10 nM
10 | [2H]C([2H])([2H])n1c(=O)n([C@@H]2CC[C@@H](NC(=O)OC)C2)c2cc(Nc3cc(C(=O)N4CCOCC4)c4cccc(C(C)(C)C#N)c4n3)ncc21 [Example 96, Methyl ((1R,3R)-3-(6-((8-(2-cyanopropan-2-yl)-4-(morpholine-4-carbonyl)quinolin-2-yl)amino)-3-(methyl-d3)-2-oxo-2,3-dihydro-1H-imidazo[4,5-c]pyridin-1-yl)cyclopentyl)carbamate] | > 1000 nM | ≤ 10 nM | > 1000 nM | ≤ 10 nM
11 | [2H]C([2H])([2H])n1c(=O)n([C@@H]2CC[C@@H](NC(=O)OC)C2)c2cc(Nc3ccc(OC)c(-c4ncc(C(F)(F)F)s4)n3)ncc21 [Example 98, Methyl ((1R,3R)-3-(6-((5-methoxy-6-(5-(trifluoromethyl)thiazol-2-yl)pyridin-2-yl)amino)-3-(methyl-d3)-2-oxo-2,3-dihydro-1H-imidazo[4,5-c]pyridin-1-yl)cyclopentyl)carbamate] | > 1000 nM | ≤ 10 nM | > 1000 nM | ≤ 10 nM
12 | [2H]C([2H])([2H])n1c(=O)n([C@@H]2CC[C@@H](NC(=O)OC)C2)c2cc(Nc3cc(C)cc(-c4ncc(C(C)(C)O)s4)n3)ncc21 [Example 99, Methyl ((1R,3R)-3-(6-((6-(5-(2-hydroxypropan-2-yl)thiazol-2-yl)-4-methylpyridin-2-yl)amino)-3-(methyl-d3)-2-oxo-2,3-dihydro-1H-imidazo[4,5-c]pyridin-1-yl)cyclopentyl)carbamate] | > 1000 nM | ≤ 10 nM | > 1000 nM | ≤ 10 nM
13 | [2H]C([2H])([2H])n1c(=O)n([C@@H]2CC[C@@H](NC(=O)OC)C2)c2cc(Nc3cc(C(C)(C)O)cc(-c4ncc(C(F)(F)F)s4)n3)ncc21 [Example 100, Methyl ((1R,3R)-3-(6-((4-(2-hydroxypropan-2-yl)-6-(5-(trifluoromethyl)thiazol-2-yl)pyridin-2-yl)amino)-3-(methyl-d3)-2-oxo-2,3-dihydro-1H-imidazo[4,5-c]pyridin-1-yl)cyclopentyl)carbamate] | > 1000 nM | ≤ 10 nM | > 1000 nM | ≤ 10 nM
14 | [2H]C([2H])([2H])n1c(=O)n([C@@H]2CC[C@@H](NC(=O)OC)C2)c2cc(Nc3cc(CN4CC(C(F)F)C4)cc(-c4ncc(C(F)(F)F)s4)n3)ncc21 [Example 101, Methyl ((1R,3R)-3-(6-((4-((3-(difluoromethyl)azetidin-1-yl)methyl)-6-(5-(trifluoromethyl)thiazol-2-yl)pyridin-2-yl)amino)-3-(methyl-d3)-2-oxo-2,3-dihydro-1H-imidazo[4,5-c]pyridin-1-yl)cyclopentyl)carbamate] | > 1000 nM | ≤ 10 nM | > 1000 nM | ≤ 10 nM
